Peptide text beside a SMILES is read from it. * marks the point of attachment. Cbz = O=C(OCc1ccccc1)*
Key:
SRSF-1 = assay: Western blot of SRSF-1 in HGPS fibroblasts; assay type: cell-based, human; settings: 48 h treatment of HGPS fibroblasts with MG132 (10 μM)
Procedure: Total fibroblast proteins were extracted in 200 μL of NP40 Cell Lysis buffer (Invitrogen, Carlsbad, Calif.) containing Protease and Phosphatase Inhibitor Cocktail (Thermo Scientific). Alternatively, cells were lysed with urea (8 M urea, 5 mM dithiothreitol, 150 mM NaCl, 50 mM Tris-Cl pH 7.5, protease and phosphatase Inhibitor Cocktail (Thermo Scientific)). Cells were sonicated twice (30 sec each), incubated at 4° C. for 30 minutes and then centrifuged at 10,000 g for 10 minutes. Protein concentration was evaluated with the bicinchoninic acid technique (Pierce BCA Protein Assay Kit), absorbance at 562 nm is measured using nanodrop 1000 (Thermo Fisher Scientific Inc.) Equal amounts of proteins (40 μg) were loaded onto 10% Tis-Glycine gel (Criterion™ XT precast gel) using XT Tricine running Buffer (Biorad, USA). After electrophoresis, gels were electro transferred onto nitrocellulose membranes or Immobilon-FL polyvinylidene fluoride membranes (Millipore), blocked in Odyssey Blocking Buffer diluted 1:1 in PBS for 1 hour at room temperature, and incubated overnight at 4° C. or 2 hours at room temperature with various primary antibodies. Blots were washed with TBS-T buffer [20 mM tris (pH 7.4), 150 mM NaCl, and 0.05% Tween 20] and incubated with 1:10,000 IR-Dye 800-conjugated secondary donkey anti-goat or IR-Dye 700-conjugated secondary anti-mouse antibodies (LI-COR Biosciences) in Odyssey blocking buffer (LI-COR Biosciences). For IR-Dye 800 and IR-Dye 700 detection, an Odyssey Infrared Imaging System (LI-COR Biosciences) was used. GAPDH, α-tubulin or β-actin were used as a total cellular protein loading control.

progerin = assay: Intramuscular MG132 in Lmna G609G/G609G mice, progerin in gastrocnemius muscle; assay type: in vivo, mouse
Procedure: (A) Lamin A, progerin, lamin C and SRSF-1 specific bands, corresponding to DMSO-treated left muscle (−) and 1 μg/Kg MG132-treated right muscle (+), were quantified by ImageJ software and their expression levels were normalized to GAPDH values.
(§1) Knock-in mouse model (Lmna^G609G/G609G) carrying the c.1827C>T (p.Gly609Gly) mutation in the endogenous Lmna gene, corresponding to the human HGPS mutation c.1824C>T (p.Gly609Gly) have been described previously (31). MG132 (1 or 10 μg/Kg body weight) was injected under isoflurane anesthesia into the right gastrocnemius muscle of […] homozygous knock-in mice (Lmna^G609G/G609G) 3 times per week for 2 weeks. Contralateral muscle served as control (DMSO). MG132 was dissolved in dimethyl sulfoxide (DMSO) and then diluted in 100 μl sterile phosphate-buffered saline (PBS) for intramuscular injection. […] Animal experiments have been carried out in compliance with the European guidelines for the care and use of laboratory animals (EU directive 2010/63/EU) and in accordance with the recommendations provided by the guide for the care and use of the laboratory animals of the French national Institute for Health and Medical Research (INSERM) and the ethical committee of Aix-Marseille University.

[1] = Tolerability of intramuscular MG132 in Lmna G609G/G609G mice; assay type: in vivo, mouse; settings: 1 or 10 μg/Kg intramuscular
Procedure: as §1

[2] = tested on: HGPS fibroblasts, HGPS derived iPS-MSC or iPS-VSMC; assay: CellTiter-Glo Luminescent Cell Viability Assay; assay type: cell-based, human; settings: 24 h, doses used in this study
Procedure: HGPS fibroblasts, HGPS derived iPS-MSC or iPS-VSMC viability was measured at 24 h post treatment with MG132 at the indicated concentrations using CellTiter-Glo Luminescent Cell Viability Assay. Results are reported as viability percentage of MG132-treated cells relative to untreated cells.

HGPS cell lines = assay: Quantitation of abnormal nuclear morphology; assay type: cell-based, human; settings: 10 μM MG132, 48 h
Procedure: The percentage of normal nuclei (nuclei with a smooth oval shape) and abnormal nuclei (nuclei with blebs, irregular shape, or multiple folds) was calculated by manual blind counting. A representative image and the mean values of 3 different experiments are shown. *P<0.05.
Fibroblasts from three HGPS patients (AG01972, AG11498, 5968) and two normal individuals (8471, 8498) were cultured with DMEM medium containing 10 μM MG132, or the same volume of vehicle (DMSO, 0.025% v/v) for 48 h. Cells stained for lamin A/C or DAPI were examined by fluorescence microscopy with an Axioplan 2 imaging microscope (Carl Zeiss). For quantitation of abnormal nuclear morphology, the percentage of normal nuclei (nuclei with a smooth oval shape) and abnormal nuclei (nuclei with blebs, irregular shape, or multiple folds) was calculated by manual blind counting. At least 200 fibroblast nuclei were randomly selected for each cell line and examined in two independent experiments. Results are expressed graphically as the average percentage of the total nuclei counted.

progerin mRNA = assay: qRT-PCR of progerin transcripts in HGPS fibroblasts; assay type: cell-based, human; settings: 10 μM MG132, time dependent, relative to DMSO
Procedure: (§2) Total RNA was isolated using the RNeasy plus extraction kit (Qiagen, Valencia, Calif.). 1 μg of RNA was reverse transcribed using the High Capacity cDNA Reverse Transcription Kit (Applied Biosystems). Real time PCR amplification was carried out with the TaqMan® Gene Expression Master Mix (Applied Biosystems) on a LightCycler 480 (Roche, Germany) using pre-designed primers for GAPDH (Hs00266705_g1), Progerin (F: […] (SEQ ID NO:3) R: […] (SEQ ID NO:4) and probe: […] (SEQ ID NO:5)), Lamin A (F: […] (SEQ ID NO:6) R: […] (SEQ ID NO:7) and probe: […] (SEQ ID NO:8)) and lamin C (F: […] (SEQ ID NO:9) R: […] (SEQ ID NO:10) and probe: […] (SEQ ID NO:11)) (Applied Biosystems) using the program: UNG incubation at 50° C. for 2 minutes, initial denaturation at 95° C. for 10 minutes, 40 cycles of amplification: denaturation at 95° C. for 15 seconds and annealing at 60° C. for 1 minute. All PCR reactions were performed in triplicate. Threshold cycle (Ct) values were used to calculate relative mRNA expression by the 2-ΔΔ^T relative quantification method with normalization to GAPDH expression.

lamin C mRNA = assay: qRT-PCR of lamin C transcripts in HGPS cells; assay type: cell-based, human; settings: 10 μM MG132 time-course
Procedure: as §2

For CC(C)C[C@@H](C=O)NC(=O)[C@H](CC(C)C)NC(=O)[C@H](CC(C)C)NC(=O)OCc1ccccc1 [MG132, Z-Leu-Leu-Leu-al] (Cbz-Leu-Leu-Leu-aldehyde), the SRSF-1 levels (SRSF-1) was “significant decrease of SRSF-1 levels”, the “progerin level in treated muscle” value (progerin; 1 μg/Kg intramuscular, 3 times per week for 2 weeks, vs contralateral muscle) was “significant decrease of progerin level” and the “progerin level in treated muscle” value (progerin; 10 μg/kg body weight intramuscular) was “significant decrease of progerin levels”. The “apparent damage or stress responses” value [1] was “Neither vehicle alone nor MG132 treatment produced any apparent damage or stress responses”, the viability / mortality [2] was “do not induce significant mortality” and the nuclear shape abnormalities (HGPS cell lines) was “improves nuclear shape abnormalities”. The “progerin mRNA expression” value (progerin mRNA) was “almost extinguished progerin mRNA expression” and the “lamin C transcript levels” value (lamin C mRNA) was “much less pronounced decrease of lamin C transcript levels”.
